In US7071218B2, “N-substituted heterocycles for the treatment of hypercholesteremia, dyslipidemia and other metabolic disorders; cancer, and other diseases” (Incyte San Diego Incorporated, priority 2001, dated 2006):

Experiments:
[1] = biological target: T1, PPARγ (Homo sapiens, UniProt P37231); test: In vitro transactivation assay in CV-1 cells, antagonism of BRL49653-induced Gal-PPARγ activation; format: cell-based; conditions: with 1 μM agonist BRL49653, dose-dependent
T1 construct: expressed in transfected cells; host or cells: CV-1 (green monkey kidney) cells, transient calcium phosphate transfection
T1 sequence (P37231 238-503 limits assumed): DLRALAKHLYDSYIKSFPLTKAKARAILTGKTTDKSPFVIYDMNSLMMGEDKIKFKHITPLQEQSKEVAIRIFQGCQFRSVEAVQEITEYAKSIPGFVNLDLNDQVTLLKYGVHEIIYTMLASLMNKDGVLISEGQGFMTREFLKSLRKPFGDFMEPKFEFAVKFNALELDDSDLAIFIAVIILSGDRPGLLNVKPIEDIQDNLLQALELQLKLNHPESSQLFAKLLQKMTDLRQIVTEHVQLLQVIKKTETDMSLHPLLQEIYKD
Description: In vitro screens such as the transactivation assay can be used to measure the ability of a compound to inhibit a nuclear receptor regulating lipid or carbohydrate uptake, synthesis or metabolism. In the assay described herein compounds can be identified that can inhibit activation of the following nuclear receptors: LXR, PPARα, PPARγ and FXR. This activity can be useful to treat lipid disorders such as hypercholesteremia and obesity.
Cell line: Kidney Green Monkey CV-1 cells.
Growing culturing medium: Dulbecco's modified Eagle's medium (DMEM) supplememnted with 10% fetal calf serum (FCS).
Procedure: CV-1 cells were plated in 48 well-plate culture plates, at a density of 10,000 cells/well, 24 h prior to transfection. One to three hours before transfection, cells were fed with fresh medium. A modified calcium phosphate precipitation procedure was used for transient transfection (Pfahl, M. et al., 1990, Methods in Enzymology 189: 256).
Typically, 40 ng reporter plasmid and 20 ng of each receptor expression vector were mixed, together with 10 ng of β-galactosidase control plasmid (pCH110, Pharmacia, Piscataway, N.J.) and Bluescript plasmid to obtain a total of 400 ng DNA per well. To this mixture 1 μl of 2.5M CaCl2 and 10 μl of BBS buffer, pH 6.95, were added afterward. […]

[2] = Oral treatment of hypercholesterolemia in Sprague Dawley rats on a high cholesterol atherogenic diet (serum cholesterols); format: in vivo; conditions: 20 mg/kg once daily by oral gavage for five days
Method: Six week-old male Sprague Dawley rats (HSD, Harlan) were housed in a fixed 12–12-hr artificial light-dark cycle, and maintained on a high cholesterol, atherogenic diet ad libitum (# C13002, Research Diets, New Jersey).
Animals were maintained on this diet throughout the course of the study.
Following six days of maintenance on the high cholesterol diet, the animals were bled from the tail vein (100–200 μL of whole blood) and serum levels of total cholesterol were measured in duplicate (Infinity Cholesterol Kit; Sigma, St. Louis, Mo.). Based on these initial measures, animals were sorted into groups with approximately the same average serum cholesterol levels. Once sorted, the animals were housed three per cage and maintained on the high cholesterol diet ad libitum.
Treatment groups (n=6/group): • 1) High cholesterol fed control (sesame oil) • 2) Compound 7 (20 mg/kg; once daily)
Compound 7 was mixed in sesame oil, and administered to animals in a volume of 3 mL/kg/dose. Compound 7 was administered by oral gavage daily for five consecutive days.
To monitor the effect of Compound 7, animals were bled from the tail vein five days after commencement of oral treatment. Serum cholesterols were measured in duplicate. The blood is kept at room temperature to allow coagulation, after which the serum is separated and assayed for total cholesterol (see FIG. 1), high density lipoprotein cholesterol (see FIG. 2) and low density lipoprotein cholesterol levels (see FIG. 3). […] Similarly, Compound 7 reduced LDL cholesterol levels compared to controls (ANOVA, Fisher's Least significant difference test, p≦0.01). Finally, Compound 7 increased HDL cholesterol levels compared to controls (ANOVA, Fisher's Least significant difference test, p<0.01).

Compound: CN(C)c1cc2c(cc1-c1ccc3cc(/C=C4\SC(=S)N(CC(=O)O)C4=O)ccc3c1)C(C)(C)CCC2(C)C [Compound 7, {5-[6-(3-Dimethylamino-5,5,8,8-tetramethyl-5,6,7,8-tetrahydro-naphthalen-2-yl)-naphthalen-2-ylmethylene]-4-oxo-2-thioxo-thiazolidin-3-yl}-acetic acid]
- inhibition at 10 µM [1]: 80 to 90%
- HDL cholesterol levels compared to controls ([2]; p<0.01): increased
- LDL cholesterol levels compared to controls ([2]; p≦0.01): reduced
- total serum cholesterol compared to control animals ([2]; p≦0.01): significantly reduced
